Reference: patent US6239146A, “Neurotrophic difluoroamide agents” (Bristol-Myers Squibb Company, priority 2000, dated 2001)

Biological target: FKBP12 (Homo sapiens, UniProt P62942)
Assay: FKBP12 Rotamase Inhibition Assay
Type: biochemical
Conditions: for inhibition at 10 µM: read-out: Percent Inhibition at 10 μM (rotamase); for Ki: 4° C., chymotrypsin-coupled, succinyl-Ala-Leu-Pro-Phe-p-nitroanilide substrate, read-out: Ki (apparent Ki for inhibition of rotamase activity)

FKBP12, sequence (P62942 whole entry, species assumed): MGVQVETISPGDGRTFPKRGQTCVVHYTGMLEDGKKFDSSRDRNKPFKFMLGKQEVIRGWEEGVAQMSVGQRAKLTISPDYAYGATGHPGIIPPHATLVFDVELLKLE

Row | inhibition at 10 µM [%] | Ki [nM] | SMILES
1 | 70 |  | COc1cc(C(F)(F)C(=O)N2CCC[C@H]2C(=O)OC(C)(C)CCc2ccccc2)cc(OC)c1OC [Example 5]
2 | 97 | 1300 | COc1cc(C(F)(F)C(=O)N2CCC[C@H]2C(=O)OCCCc2ccccc2)cc(OC)c1OC [Example 1]
3 | 98 |  | COc1cc(C(F)(F)C(=O)N2CCCC[C@H]2C(=O)OC(CCCc2ccccc2)CCCc2cccnc2)cc(OC)c1OC (stereo partly shown) [Example 4]
4 | 38 |  | COc1cc(CCCOC(=O)[C@@H]2CCCN2C(=O)C(F)(F)c2cc(OC)c(OC)c(OC)c2)cc(OC)c1OC [Example 8]
5 | 99 | 109 | COc1cc(CCCOC(=O)[C@@H]2CCCCN2C(=O)C(F)(F)c2cc(OC)c(OC)c(OC)c2)cc(OC)c1OC [Example 9]
6 | 94 |  | COc1cc(C(F)(F)C(=O)N2CCCC[C@H]2C(=O)OC(CCc2ccccc2)c2ccccc2)cc(OC)c1OC (stereo partly shown) [Example 7]
7 | 100 | 83 | COc1cc(C(F)(F)C(=O)N2CCC[C@H]2C(=O)OC(CCc2ccccc2)c2ccccc2)cc(OC)c1OC (stereo partly shown) [Example 6]
8 | 97 | 104 | COc1cc(C(F)(F)C(=O)N2CCC[C@H]2C(=O)OC(CCCc2ccccc2)CCCc2cccnc2)cc(OC)c1OC (stereo partly shown) [Example 3]

Row | SMILES | inhibition at 10 µM [%] | Ki [nM]
9 | COc1cc(C(F)(F)C(=O)N2CCC[C@H]2C(=O)OCCCc2cccnc2)cc(OC)c1OC [Example 2] |  | 877
